For three compounds, inhibition results are on record in PMC6430017, “Structural and chemical insights into the covalent-allosteric inhibition of the protein kinase Akt” (Chemical Science, 2019).

Among the targets are RPS6KA2 (RSK3) (Homo sapiens, UniProt Q15349); MAPKAPK3 (Homo sapiens, UniProt Q16644); EPHA2 (Homo sapiens, UniProt P29317).
Holding throughout (experiment): SelectScreen Z'LYTE kinase profiling
Holding throughout (assay type): biochemical
What all share (conditions): ATP at apparent KM

The target of the next assay is T1, PRKCI (PKC iota) (Homo sapiens, UniProt P41743).
T1 sequence (P41743 1-596): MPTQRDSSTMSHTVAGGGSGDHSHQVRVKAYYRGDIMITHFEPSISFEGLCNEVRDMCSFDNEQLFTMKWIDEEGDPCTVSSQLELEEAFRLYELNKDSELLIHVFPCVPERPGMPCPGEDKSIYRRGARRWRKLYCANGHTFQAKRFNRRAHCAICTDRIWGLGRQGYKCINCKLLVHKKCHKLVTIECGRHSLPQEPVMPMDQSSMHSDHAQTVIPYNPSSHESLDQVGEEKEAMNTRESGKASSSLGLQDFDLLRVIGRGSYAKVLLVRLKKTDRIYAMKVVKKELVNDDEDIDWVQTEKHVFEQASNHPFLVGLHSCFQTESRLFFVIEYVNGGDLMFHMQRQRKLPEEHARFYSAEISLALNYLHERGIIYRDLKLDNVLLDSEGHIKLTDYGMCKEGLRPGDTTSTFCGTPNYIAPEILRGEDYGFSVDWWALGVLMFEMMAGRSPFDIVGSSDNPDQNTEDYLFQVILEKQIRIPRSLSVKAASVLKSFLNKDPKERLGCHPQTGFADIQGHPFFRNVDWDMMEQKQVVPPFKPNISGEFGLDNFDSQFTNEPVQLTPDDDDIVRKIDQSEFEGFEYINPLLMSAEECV

In a further assay the target is T2, CAMK4 (CaMKIV) (Homo sapiens, UniProt Q16566).
T2 sequence (Q16566 1-473): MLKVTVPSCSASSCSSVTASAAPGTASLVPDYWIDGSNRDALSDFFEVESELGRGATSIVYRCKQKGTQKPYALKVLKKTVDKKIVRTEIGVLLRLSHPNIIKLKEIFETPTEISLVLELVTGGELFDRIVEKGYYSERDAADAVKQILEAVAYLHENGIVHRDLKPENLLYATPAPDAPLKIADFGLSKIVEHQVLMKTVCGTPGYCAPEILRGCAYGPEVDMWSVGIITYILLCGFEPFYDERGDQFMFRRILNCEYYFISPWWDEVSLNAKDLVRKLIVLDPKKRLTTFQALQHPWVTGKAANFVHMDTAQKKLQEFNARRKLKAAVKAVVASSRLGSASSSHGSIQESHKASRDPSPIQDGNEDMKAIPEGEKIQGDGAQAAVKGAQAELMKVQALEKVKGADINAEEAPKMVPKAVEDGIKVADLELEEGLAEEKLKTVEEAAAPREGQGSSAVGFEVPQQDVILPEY

In another assay the target is T3, TXK (Homo sapiens, UniProt P42681).
T3 sequence (P42681 1-527): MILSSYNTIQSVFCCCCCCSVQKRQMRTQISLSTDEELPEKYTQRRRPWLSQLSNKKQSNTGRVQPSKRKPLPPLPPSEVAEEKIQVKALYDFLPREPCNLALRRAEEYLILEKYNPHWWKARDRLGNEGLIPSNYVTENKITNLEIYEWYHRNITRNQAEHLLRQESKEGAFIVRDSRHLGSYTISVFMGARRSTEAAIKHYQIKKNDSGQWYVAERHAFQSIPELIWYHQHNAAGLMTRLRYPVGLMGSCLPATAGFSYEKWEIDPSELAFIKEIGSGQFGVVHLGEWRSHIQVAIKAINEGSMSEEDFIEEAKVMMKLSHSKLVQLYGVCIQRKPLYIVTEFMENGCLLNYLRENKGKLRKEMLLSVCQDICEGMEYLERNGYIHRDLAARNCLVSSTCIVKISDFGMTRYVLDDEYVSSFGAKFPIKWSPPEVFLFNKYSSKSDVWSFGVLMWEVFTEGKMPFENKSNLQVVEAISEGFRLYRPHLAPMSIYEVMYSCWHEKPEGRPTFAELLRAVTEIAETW

For another assay, the target named is T4, ITK (Homo sapiens, UniProt Q08881).
T4 sequence (Q08881 1-620): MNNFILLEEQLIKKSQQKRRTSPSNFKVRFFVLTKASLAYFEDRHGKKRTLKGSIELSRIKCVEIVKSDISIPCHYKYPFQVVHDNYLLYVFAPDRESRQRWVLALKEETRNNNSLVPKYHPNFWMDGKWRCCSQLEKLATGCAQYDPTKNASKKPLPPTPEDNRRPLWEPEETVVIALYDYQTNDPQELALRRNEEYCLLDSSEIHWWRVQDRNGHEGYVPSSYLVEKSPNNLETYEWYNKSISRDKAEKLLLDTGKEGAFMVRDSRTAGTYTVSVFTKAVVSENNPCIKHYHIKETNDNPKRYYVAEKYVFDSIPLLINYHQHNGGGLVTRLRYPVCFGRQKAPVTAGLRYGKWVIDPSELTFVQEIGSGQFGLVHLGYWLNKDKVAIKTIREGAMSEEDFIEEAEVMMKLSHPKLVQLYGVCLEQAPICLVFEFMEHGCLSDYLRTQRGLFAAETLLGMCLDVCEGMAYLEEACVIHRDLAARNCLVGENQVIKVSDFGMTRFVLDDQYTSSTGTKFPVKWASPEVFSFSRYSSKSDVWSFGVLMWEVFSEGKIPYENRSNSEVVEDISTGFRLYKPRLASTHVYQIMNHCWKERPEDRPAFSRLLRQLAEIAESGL

Another assay deals with T5, STK3 (MST2) (Homo sapiens, UniProt Q13188).
T5 sequence (Q13188 1-491): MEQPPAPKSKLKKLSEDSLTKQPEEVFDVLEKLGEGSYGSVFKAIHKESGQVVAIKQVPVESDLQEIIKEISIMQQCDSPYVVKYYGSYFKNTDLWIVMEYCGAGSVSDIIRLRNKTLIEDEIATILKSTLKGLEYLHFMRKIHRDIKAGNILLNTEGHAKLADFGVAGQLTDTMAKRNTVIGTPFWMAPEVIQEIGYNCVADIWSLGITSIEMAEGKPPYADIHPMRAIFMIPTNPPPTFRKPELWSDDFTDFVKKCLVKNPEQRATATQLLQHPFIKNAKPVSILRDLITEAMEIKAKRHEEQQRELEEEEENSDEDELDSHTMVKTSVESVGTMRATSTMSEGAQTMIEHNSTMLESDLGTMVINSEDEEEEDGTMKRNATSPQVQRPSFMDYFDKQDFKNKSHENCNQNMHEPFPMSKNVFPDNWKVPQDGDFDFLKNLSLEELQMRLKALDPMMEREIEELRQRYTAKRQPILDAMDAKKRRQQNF

Sequence of EPHA2 (P29317 24-976): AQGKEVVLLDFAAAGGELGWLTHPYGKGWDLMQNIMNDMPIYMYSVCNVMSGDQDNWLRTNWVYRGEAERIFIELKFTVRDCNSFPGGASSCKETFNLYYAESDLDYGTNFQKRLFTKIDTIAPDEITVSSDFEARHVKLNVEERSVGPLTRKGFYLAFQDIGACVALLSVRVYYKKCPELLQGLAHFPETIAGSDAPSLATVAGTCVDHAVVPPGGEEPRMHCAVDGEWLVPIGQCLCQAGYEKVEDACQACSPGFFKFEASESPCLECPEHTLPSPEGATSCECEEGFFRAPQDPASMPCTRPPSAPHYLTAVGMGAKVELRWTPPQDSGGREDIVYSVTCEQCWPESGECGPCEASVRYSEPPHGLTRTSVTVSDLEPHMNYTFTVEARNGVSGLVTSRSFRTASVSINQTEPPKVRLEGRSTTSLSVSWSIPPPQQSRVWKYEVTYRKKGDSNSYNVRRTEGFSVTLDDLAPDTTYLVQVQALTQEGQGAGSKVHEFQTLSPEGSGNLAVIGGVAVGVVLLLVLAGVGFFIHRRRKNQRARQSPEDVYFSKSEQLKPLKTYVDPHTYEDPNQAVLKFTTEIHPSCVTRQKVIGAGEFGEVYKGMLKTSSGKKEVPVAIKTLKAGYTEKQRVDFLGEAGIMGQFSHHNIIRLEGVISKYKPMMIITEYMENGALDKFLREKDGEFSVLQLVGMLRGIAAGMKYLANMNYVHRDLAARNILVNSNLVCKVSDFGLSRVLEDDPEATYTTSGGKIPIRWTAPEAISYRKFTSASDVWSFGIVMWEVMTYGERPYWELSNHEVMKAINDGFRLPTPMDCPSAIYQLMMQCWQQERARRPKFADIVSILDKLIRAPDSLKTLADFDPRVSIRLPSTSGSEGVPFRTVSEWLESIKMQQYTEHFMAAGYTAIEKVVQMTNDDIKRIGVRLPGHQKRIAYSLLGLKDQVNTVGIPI
Sequence of RPS6KA2 (RSK3) (Q15349 whole entry): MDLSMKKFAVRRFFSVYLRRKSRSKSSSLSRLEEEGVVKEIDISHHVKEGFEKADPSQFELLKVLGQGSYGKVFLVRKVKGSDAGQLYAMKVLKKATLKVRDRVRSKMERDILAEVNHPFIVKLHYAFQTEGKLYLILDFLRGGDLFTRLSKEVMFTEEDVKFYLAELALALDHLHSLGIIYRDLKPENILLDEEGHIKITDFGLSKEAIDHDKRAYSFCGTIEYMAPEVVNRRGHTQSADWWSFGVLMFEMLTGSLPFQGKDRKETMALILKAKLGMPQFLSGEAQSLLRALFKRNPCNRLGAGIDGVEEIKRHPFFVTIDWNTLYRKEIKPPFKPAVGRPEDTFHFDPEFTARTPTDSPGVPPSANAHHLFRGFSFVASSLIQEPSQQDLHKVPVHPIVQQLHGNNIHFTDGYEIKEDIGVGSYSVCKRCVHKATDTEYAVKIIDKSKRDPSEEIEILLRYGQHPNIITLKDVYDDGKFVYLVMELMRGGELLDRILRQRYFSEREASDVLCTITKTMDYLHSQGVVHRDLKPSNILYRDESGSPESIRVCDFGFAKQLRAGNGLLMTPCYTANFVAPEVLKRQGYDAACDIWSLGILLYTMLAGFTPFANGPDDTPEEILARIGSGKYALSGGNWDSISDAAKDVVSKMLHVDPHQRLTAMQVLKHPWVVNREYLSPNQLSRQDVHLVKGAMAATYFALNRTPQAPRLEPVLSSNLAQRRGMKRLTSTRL
Sequence of MAPKAPK3 (Q16644 whole entry): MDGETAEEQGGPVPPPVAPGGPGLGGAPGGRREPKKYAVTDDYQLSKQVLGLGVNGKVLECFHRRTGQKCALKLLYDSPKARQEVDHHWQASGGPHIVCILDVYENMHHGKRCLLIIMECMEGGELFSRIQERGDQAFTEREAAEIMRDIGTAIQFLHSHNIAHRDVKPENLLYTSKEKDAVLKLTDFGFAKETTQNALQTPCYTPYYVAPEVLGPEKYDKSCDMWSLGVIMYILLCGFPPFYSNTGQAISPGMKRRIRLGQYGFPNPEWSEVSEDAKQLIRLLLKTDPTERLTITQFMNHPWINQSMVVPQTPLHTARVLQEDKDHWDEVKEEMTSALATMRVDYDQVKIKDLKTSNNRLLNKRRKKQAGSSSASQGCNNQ
Method for CAMK4 (CaMKIV): (§1) protein kinases at a compound concentration of 1 µM. Measurements were performed in duplicates
(§2) and at the particular apparent ATP KM of each individual kinase employing the activity based Z’LYTE®
(§3) kinase assay of the SelectScreen® Kinase Profiling Services (ThermoFisher Scientific).
(§4) kinases at a compound concentration of 1 µM. Measurements were performed in duplicates and at
(§5) the particular apparent ATP KM of each individual kinase employing the activity based Z’LYTE® kinase
(§6) assay of the SelectScreen® Kinase Profiling Services (ThermoFisher Scientific).
Method for EPHA2: as §1, §2, §3, §4, §5, §6
Method for ITK: as §1, §2, §3, §4, §5, §6
Method for MAPKAPK3: as §1, §2, §3, §4, §5, §6
Method for PRKCI (PKC iota): as §1, §2, §3, §4, §5, §6
Method for RPS6KA2 (RSK3): as §1, §2, §3, §4, §5, §6
Method for STK3 (MST2): as §1, §2, §3, §4, §5, §6
Method for TXK: as §1, §2, §3, §4, §5, §6

One may read the inhibition as the drop in the measured response relative to a control, in per cent. For the compound `C=CC(=O)Nc1ccc2c(c1)n(C1CCN(Cc3ccc(-c4nc5cc[nH]c(=O)c5cc4-c4ccccc4)cc3)CC1)c(=O)n2C` [24b], the inhibition at 1 µM was 25% at RPS6KA2 (RSK3); 23% on MAPKAPK3; 3% on PRKCI (PKC iota); -1% at CAMK4 (CaMKIV); -5% at TXK; -6% at EPHA2. Moreover, the results for the inhibition at 1 µM at ITK and on STK3 (MST2) were -9% and -13%, respectively.
On to `C=CC(=O)Nc1cccc(C(=O)NC2CCN(Cc3ccc(-c4nc5cc[nH]c(=O)c5cc4-c4ccccc4)cc3)CC2)c1` [30b], for which the inhibition at 1 µM at RPS6KA2 (RSK3) is 33%; at MAPKAPK3, 23%; at PRKCI (PKC iota), -9%; at CAMK4 (CaMKIV), 10%; on TXK, 2%; at EPHA2, 4%. Further, the inhibition at 1 µM is 1% at ITK and -19% on STK3 (MST2).
Turning to `C=CC(=O)Nc1cc(NC(=O)NC2CCN(Cc3ccc(-c4nc5cc[nH]c(=O)c5cc4-c4ccccc4)cc3)CC2)ccc1Cl` [compound 27], the inhibition at 1 µM on RPS6KA2 (RSK3) was 31%; on MAPKAPK3, 23%; at PRKCI (PKC iota) it was 5%; on CAMK4 (CaMKIV) it was 8%; on TXK it was -9%; on EPHA2, -3%. The inhibition at 1 µM is 8% at ITK and -3% at STK3 (MST2).
